# From PMC11402452, “Etomoxir-carnitine, a novel pharmaco-metabolite of etomoxir, inhibits phospholipases A2 and mitochondrial respiration” (Journal of Lipid Research, 2024)
# Target: T1, calcium-independent phospholipase A2γ (iPLA2γ) (Homo sapiens, UniProt Q9NP80)
# T1 construct: gene PNPLA8; 63 kDa recombinant human peroxisomal isoform, N-terminal (His)6 tag
# T1 sequence (Q9NP80 221-782 limits assumed): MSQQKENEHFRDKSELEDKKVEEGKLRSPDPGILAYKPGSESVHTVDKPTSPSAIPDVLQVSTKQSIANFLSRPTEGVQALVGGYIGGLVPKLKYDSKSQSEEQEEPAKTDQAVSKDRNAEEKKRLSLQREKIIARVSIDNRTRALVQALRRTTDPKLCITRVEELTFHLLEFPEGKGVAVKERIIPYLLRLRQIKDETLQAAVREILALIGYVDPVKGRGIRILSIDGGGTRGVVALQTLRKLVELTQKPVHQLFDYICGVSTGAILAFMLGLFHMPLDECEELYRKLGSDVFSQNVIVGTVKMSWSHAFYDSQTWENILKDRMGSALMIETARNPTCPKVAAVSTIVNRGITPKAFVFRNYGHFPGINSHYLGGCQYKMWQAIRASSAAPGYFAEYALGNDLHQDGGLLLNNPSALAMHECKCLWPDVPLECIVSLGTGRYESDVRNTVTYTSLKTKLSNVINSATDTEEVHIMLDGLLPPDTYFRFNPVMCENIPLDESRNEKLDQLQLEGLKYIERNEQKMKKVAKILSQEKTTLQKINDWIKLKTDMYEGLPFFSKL
# Assay: purified recombinant PLA2 activity assay (PAPC/diolein SUVs), LPC production by ESI-MS
# Type: biochemical
smiles,measurement,value
"C[N+](C)(C)C[C@@H](CC(=O)O)OC(=O)[C@@]1(CCCCCCOc2ccc(Cl)cc2)CO1 [ETO-carnitine, (R)-3-carboxy-2-(((R)-2-(6-(4-chlorophenoxy)hexyl)oxirane-2-carbonyl)oxy)-N,N,N-trimethylpropan-1-aminium]",IC50,~1.75 nM
